Experimental data taken from ChEMBL document CHEMBL1201862, “PubChem BioAssay data set” (2004).
Each block holds one compound with its values, some of them ahead of it. Active and inactive are the calls of the source.

Columns and labels:
[1] = target: T1, Microphthalmia-associated transcription factor (Homo sapiens, UniProt O75030); assay: TRPM1 promoter luciferase signal decrease, dose response, MITF inhibitor project, cell-based, SK-MEL-5, cherry-picked, set 3 (AID 493073); assay type: functional
T1 sequence (O75030 whole entry): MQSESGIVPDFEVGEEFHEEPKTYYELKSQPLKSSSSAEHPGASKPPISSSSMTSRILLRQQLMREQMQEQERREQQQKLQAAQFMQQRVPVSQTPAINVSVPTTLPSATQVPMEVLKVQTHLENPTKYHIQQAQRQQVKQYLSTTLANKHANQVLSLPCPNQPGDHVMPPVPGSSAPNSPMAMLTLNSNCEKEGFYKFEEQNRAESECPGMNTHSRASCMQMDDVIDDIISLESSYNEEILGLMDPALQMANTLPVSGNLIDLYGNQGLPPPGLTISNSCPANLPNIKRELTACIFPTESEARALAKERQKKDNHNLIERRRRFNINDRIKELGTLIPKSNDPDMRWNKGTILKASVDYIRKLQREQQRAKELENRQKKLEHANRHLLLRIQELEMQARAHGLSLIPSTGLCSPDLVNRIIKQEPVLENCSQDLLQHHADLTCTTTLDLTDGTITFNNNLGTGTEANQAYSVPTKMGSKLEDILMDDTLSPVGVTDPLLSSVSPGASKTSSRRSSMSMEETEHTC

[2] = cytotoxicity toward NIH3T3 fibroblasts, dose response, counter-screen, cell-based, ATP luminescence, mouse fibroblasts (AID 2010); assay type: functional;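 note: cells exposed to compound for about 90 hours before reading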
[3] = target: Genome polyprotein (dengue virus type 2, UniProt P29990); assay: Dengue-2 NS5 methyltransferase inhibitors, primary screen, biochemical, confirmation dose response (AID 588689); assay type: functional
[4] = inhibitors of SNCA 5'UTR-driven reporter translation, confirmation, H4 neuroglioma cells, luminescence (AID 1988); assay type: functional, cell-based
[5] = target: Homeodomain-interacting protein kinase 2 (Homo sapiens, UniProt Q9H2X6); assay type: functional;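 note: measured within a kinome-wide kinase profiling panel, HIPK2 being one panel member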
[6] = target: Serine/threonine-protein kinase BRSK1 (Homo sapiens, UniProt Q8TDC3); assay type: functional;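 note: measured within a kinome-wide kinase panel, with the target listed as KIAA1811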
[7] = target: Phosphorylase b kinase gamma catalytic chain, liver/testis isoform (Homo sapiens, UniProt P15735); assay type: functional;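 note: PHKG2 measured as one member of a kinome-wide kinase panel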
[8] = target: Protein kinase C zeta type (Homo sapiens, UniProt Q05513); assay type: functional;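 note: measured as one member of a broad kinase profiling panel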
[9] = target: Protein kinase C delta type (Homo sapiens, UniProt Q05655); assay type: functional
[10] = target: Serine/threonine-protein kinase Nek2 (Homo sapiens, UniProt P51955); assay type: functional
[11] = target: Dual specificity tyrosine-phosphorylation-regulated kinase 4 (Homo sapiens, UniProt Q9NR20); assay type: functional
[12] = target: Serine/threonine-protein kinase Nek4 (Homo sapiens, UniProt P51957); assay type: functional
[13] = target: Mitogen-activated protein kinase kinase kinase kinase 4 (Homo sapiens, UniProt O95819); assay type: functional
[14] = target: Tyrosine-protein kinase Fyn (Homo sapiens, UniProt P06241); assay type: functional
[15] = target: Ribosomal protein S6 kinase beta-1 (Homo sapiens, UniProt P23443); assay type: functional;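 note: measured as one member of a kinome-wide profiling panel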
[16] = target: Tyrosine-protein kinase JAK3 (Homo sapiens, UniProt P52333); assay type: functional
[17] = target: Proto-oncogene tyrosine-protein kinase ROS (Homo sapiens, UniProt P08922); assay type: functional;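 note: ROS1 tested as one member of a kinome-wide kinase panel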
[18] = target: Tyrosine-protein kinase ITK/TSK (Homo sapiens, UniProt Q08881); assay type: functional;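 note: affinity for ITK measured as one member of a broad kinase panel profiling binding across the kinome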
[19] = target: Activated CDC42 kinase 1 (Homo sapiens, UniProt Q07912); assay: Navigating the Kinome. Panel member name: ACK1; assay type: functional
[20] = target: Serine/threonine-protein kinase TAO1 (Homo sapiens, UniProt Q7L7X3); assay type: functional
[21] = target: Casein kinase I isoform gamma-1 (Homo sapiens, UniProt Q9HCP0); assay type: functional;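 note: measured as the CSNK1G1 member of a kinome profiling panel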
[22] = target: Homeodomain-interacting protein kinase 4 (Homo sapiens, UniProt Q8NE63); assay type: functional
[23] = target: Mitogen-activated protein kinase 12 (Homo sapiens, UniProt P53778); assay type: functional;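 note: measured as one member of a kinome-wide kinase profiling panel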
[24] = target: Insulin receptor (Homo sapiens, UniProt P06213); assay type: functional;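 note: insulin receptor kinase tested as one member of a kinome-wide kinase panel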
[25] = target: cGMP-dependent protein kinase 1 (Homo sapiens, UniProt Q13976); assay type: functional;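 note: value from a kinome panel screen with PRKG1 as the panel member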
[26] = target: Glycogen synthase kinase-3 beta (Homo sapiens, UniProt P49841); assay type: functional;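 note: value comes from a broad kinome profiling panel, with GSK3B as the panel member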
[27] = target: Protein kinase C theta type (Homo sapiens, UniProt Q04759); assay: Navigating the Kinome. Panel member name: PRKCQ; assay type: functional
[28] = target: Kappa-type opioid receptor (Homo sapiens, UniProt P41145); assay type: functional

Sequence of Casein kinase I isoform gamma-1 (Q9HCP0 whole entry, canonical isoform): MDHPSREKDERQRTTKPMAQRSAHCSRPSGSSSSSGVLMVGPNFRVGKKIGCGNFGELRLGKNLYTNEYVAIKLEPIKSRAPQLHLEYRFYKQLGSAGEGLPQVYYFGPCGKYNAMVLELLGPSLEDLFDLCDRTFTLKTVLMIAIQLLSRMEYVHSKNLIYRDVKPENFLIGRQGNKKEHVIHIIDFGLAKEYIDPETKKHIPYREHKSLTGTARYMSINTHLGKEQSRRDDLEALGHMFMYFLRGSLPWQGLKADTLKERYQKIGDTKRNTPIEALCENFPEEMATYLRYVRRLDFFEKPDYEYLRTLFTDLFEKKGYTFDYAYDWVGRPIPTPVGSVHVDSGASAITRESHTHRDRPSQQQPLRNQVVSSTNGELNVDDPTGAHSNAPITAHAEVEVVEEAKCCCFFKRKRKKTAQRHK
Sequence of Phosphorylase b kinase gamma catalytic chain, liver/testis isoform (P15735 whole entry, canonical isoform): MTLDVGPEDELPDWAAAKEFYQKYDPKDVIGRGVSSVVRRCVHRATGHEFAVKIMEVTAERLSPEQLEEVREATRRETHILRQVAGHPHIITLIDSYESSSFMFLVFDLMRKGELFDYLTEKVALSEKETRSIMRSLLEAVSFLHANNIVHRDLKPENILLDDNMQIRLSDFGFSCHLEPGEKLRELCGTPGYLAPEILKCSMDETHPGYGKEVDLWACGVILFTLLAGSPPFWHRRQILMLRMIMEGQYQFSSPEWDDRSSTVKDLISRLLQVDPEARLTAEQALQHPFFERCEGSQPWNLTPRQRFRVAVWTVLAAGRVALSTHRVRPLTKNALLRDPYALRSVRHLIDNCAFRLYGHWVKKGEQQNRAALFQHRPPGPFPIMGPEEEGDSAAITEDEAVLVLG
Sequence of Mitogen-activated protein kinase 12 (P53778 whole entry): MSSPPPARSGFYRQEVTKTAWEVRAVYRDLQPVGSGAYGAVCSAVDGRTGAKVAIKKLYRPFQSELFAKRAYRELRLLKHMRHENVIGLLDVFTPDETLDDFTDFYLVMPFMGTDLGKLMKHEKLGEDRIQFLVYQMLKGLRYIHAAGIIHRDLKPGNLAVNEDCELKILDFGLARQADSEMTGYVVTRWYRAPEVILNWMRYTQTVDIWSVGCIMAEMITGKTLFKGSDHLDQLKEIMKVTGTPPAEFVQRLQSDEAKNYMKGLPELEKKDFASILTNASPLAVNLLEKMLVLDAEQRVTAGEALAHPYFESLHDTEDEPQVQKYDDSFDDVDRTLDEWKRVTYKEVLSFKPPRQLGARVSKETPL
Sequence of Homeodomain-interacting protein kinase 4 (Q8NE63 whole entry): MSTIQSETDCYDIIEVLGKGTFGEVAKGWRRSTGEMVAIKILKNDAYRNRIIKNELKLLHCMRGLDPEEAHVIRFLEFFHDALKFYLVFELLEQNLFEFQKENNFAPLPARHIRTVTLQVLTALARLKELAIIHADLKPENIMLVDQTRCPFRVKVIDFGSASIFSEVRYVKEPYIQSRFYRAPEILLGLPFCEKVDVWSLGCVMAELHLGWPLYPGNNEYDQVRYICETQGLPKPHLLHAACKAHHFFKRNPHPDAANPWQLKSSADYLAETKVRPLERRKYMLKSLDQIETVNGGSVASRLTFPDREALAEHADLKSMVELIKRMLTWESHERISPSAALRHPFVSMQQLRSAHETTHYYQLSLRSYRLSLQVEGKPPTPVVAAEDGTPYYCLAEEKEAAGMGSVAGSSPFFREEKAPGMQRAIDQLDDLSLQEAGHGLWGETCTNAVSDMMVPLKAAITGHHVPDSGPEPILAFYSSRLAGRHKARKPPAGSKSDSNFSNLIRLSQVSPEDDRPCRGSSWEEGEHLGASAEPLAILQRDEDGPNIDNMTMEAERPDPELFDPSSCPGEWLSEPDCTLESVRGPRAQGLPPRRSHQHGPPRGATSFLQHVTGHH
Sequence of Homeodomain-interacting protein kinase 2 (Q9H2X6 whole entry): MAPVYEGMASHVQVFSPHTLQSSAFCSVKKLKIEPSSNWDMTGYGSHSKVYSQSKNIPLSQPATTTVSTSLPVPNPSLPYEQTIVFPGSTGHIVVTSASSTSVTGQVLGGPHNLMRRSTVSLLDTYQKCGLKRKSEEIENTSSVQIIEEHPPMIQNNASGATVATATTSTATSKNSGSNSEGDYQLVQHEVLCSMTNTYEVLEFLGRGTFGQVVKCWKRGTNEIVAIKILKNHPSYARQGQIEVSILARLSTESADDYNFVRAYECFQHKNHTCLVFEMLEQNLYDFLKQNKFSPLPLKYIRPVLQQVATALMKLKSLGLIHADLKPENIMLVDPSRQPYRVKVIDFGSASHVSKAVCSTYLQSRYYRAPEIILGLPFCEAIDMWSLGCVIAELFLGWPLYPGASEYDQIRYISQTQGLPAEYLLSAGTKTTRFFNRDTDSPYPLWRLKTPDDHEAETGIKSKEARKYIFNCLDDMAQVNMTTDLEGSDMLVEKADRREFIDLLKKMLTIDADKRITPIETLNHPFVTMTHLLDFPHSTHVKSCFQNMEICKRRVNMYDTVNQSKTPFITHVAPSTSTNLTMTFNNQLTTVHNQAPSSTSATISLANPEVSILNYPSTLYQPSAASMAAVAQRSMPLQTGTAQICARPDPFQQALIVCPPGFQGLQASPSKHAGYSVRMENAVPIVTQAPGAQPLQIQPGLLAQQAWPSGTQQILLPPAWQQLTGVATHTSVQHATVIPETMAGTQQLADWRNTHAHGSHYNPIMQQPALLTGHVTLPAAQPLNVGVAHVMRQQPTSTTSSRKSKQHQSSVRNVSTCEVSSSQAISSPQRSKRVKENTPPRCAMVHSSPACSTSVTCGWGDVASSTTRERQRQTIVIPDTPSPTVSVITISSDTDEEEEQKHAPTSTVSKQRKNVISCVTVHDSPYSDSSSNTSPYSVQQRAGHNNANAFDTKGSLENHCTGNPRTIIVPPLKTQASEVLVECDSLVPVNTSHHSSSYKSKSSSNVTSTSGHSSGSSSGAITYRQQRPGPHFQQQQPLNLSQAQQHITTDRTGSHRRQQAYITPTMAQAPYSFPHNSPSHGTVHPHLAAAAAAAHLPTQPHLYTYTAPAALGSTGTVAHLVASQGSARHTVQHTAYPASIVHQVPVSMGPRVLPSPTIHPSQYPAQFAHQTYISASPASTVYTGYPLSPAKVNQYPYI
Sequence of Serine/threonine-protein kinase BRSK1 (Q8TDC3 whole entry, canonical isoform): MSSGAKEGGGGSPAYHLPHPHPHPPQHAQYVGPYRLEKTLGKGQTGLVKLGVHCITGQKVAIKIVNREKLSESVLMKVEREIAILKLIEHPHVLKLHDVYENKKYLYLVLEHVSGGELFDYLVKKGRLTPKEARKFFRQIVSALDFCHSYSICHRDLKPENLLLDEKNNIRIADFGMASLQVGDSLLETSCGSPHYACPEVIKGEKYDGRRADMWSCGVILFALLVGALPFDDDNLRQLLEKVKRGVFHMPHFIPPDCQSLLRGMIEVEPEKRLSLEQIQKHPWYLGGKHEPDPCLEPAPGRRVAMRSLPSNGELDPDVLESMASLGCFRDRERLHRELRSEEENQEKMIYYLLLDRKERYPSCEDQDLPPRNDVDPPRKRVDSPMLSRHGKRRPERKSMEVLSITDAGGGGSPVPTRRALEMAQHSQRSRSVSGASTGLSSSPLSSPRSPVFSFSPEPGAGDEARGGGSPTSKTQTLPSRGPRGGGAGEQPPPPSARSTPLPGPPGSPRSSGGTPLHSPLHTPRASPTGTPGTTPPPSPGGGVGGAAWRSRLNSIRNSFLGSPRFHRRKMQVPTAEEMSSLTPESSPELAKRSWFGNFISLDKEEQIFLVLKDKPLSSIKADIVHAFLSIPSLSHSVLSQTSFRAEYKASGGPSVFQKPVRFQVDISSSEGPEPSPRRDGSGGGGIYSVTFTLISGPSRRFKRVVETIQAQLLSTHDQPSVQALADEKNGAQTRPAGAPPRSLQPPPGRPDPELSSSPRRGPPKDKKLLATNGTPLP
Sequence of Protein kinase C zeta type (Q05513 whole entry): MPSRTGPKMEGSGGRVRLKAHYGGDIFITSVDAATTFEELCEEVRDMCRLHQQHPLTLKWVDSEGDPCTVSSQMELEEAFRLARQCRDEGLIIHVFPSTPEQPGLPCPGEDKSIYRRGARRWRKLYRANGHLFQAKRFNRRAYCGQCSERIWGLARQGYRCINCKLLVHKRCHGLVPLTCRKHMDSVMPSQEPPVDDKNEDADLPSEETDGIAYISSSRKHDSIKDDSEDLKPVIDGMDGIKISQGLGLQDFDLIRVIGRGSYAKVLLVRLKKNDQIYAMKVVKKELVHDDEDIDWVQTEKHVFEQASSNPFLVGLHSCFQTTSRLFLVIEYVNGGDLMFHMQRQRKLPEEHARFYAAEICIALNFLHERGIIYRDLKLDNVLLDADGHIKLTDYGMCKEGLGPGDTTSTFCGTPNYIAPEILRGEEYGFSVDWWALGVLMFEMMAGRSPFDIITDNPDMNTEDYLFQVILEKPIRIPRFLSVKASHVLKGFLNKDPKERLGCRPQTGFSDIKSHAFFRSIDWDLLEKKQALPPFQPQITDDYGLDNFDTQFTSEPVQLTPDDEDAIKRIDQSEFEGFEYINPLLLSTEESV
Sequence of Dual specificity tyrosine-phosphorylation-regulated kinase 4 (Q9NR20 whole entry): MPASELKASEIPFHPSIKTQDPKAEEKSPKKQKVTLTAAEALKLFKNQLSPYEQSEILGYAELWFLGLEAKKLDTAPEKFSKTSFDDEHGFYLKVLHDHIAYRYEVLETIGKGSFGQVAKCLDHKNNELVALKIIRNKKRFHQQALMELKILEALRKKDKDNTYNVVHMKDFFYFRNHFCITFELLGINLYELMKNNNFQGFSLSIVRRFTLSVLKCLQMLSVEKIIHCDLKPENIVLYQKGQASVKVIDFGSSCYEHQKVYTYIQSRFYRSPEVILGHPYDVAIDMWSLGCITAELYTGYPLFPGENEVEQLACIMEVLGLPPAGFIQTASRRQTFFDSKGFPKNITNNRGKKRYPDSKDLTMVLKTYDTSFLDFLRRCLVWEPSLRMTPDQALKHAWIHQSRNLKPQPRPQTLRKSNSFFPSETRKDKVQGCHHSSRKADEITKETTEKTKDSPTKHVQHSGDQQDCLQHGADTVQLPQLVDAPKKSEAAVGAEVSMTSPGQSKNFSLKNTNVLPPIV

SMILES: COC(=O)CCS(=O)(=O)c1nc(-c2ccccc2)cc(C(F)(F)F)n1
AC50 [1]: 5.85 µM (active)

SMILES: O=C(O)c1ccc(NC2=C(Cl)C(=O)c3ccccc3C2=O)cc1
EC50 [2]: 4.97 µM (active)
IC50 [3]: 7.76 µM (active)

SMILES: O=C(O)c1ccc2c3c(ncnc13)-c1ccccc1C2=O
EC50 [4]: 2.45 µM (active)

Ki [5]: 0.794 µM (active)
Ki [6]: > 10 µM (inactive)
Ki [7]: > 5.01 µM (inactive)
Ki [8]: > 7.94 µM (inactive)
Ki [9]: > 7.94 µM (inactive)
Ki [10]: > 10 µM (inactive)
Ki [11]: > 7.94 µM (inactive)
Ki [12]: > 6.31 µM (inactive)
Ki [13]: > 2.51 µM (inactive)
Ki [14]: > 0.794 µM (inactive)
Ki [15]: > 6.31 µM (inactive)
Ki [16]: > 3.16 µM (inactive)
Ki [17]: > 2 µM (inactive)
Ki [18]: > 1.58 µM (inactive)
Ki [19]: > 3.98 µM (inactive)
Ki [20]: > 6.31 µM (inactive)
Ki [21]: > 6.31 µM (inactive)
Ki [22]: 0.251 µM (active)
Ki [23]: > 6.31 µM (inactive)
Ki [24]: > 5.01 µM (inactive)
Ki [25]: > 2 µM (inactive)
SMILES: Cc1ccc2nccc(NC(=O)Nc3cccc(C(F)(F)F)n3)c2c1

Ki [26]: 39.8 µM (active)
Ki [24]: > 50.1 µM (inactive)
Ki [27]: 79.4 µM (active)
SMILES: Cc1nn(C)c2sc3c(=O)[nH]cnc3c12

SMILES: Cc1c(/N=C2\C=CC(=O)c3ccccc32)c(=O)n(-c2ccccc2)n1C
IC50 [3]: 88.6 µM (active)
IC50 [28]: > 32 µM
AC50 [1]: 5.26 µM (active)

SMILES: COc1cc2c(cc1F)C(c1ccccc1Cl)=Nc1c(n[nH]c1C)N2 [RG-1530]
Ki [5]: > 3.16 µM (inactive)
Ki [6]: 1.26 µM (active)
Ki [7]: 3.16 µM (active)
Ki [8]: > 7.94 µM (inactive)
Ki [9]: 3.16 µM (active)
Ki [10]: > 6.31 µM (inactive)
Ki [11]: > 7.94 µM (inactive)
Ki [12]: > 6.31 µM (inactive)
Ki [13]: > 3.98 µM (inactive)
Ki [14]: 0.316 µM (active)
Ki [15]: > 6.31 µM (inactive)
Ki [16]: 0.0794 µM (active)
Ki [17]: 0.02 µM (active)
Ki [18]: 0.126 µM (active)
Ki [21]: > 6.31 µM (inactive)
Ki [22]: > 7.94 µM (inactive)
Ki [23]: > 6.31 µM (inactive)
Ki [25]: > 2 µM (inactive)
